Results as given in patent US20260234173A1, “STRUCTURED MOLECULAR VECTORS FOR ANTI-INFLAMMATORY COMPOUNDS AND USES THEREOF” (Universite Claude Bernard Lyon 1, priority 2019, published 2026).

Assays:
[1] = test system: Pilo-SE-induced inflammation in the hippocampus; assay: Resolution of inflammation in hippocampus following pilocarpine-induced status epilepticus (Pilo-SE); type: in vivo, rat; conditions: 2 mg/kg i.p. after 2 h of SE, hippocampus 9 h post-SE
Experimental: Male Sprague-Dawley rats (Envigo, The Netherlands) were subjected to Pilo-SE at 42 days of age (185 g). SE was triggered by pilocarpine hydrochlorate (350 mg/kg, i.p.), 30 min after the administration of scopolamine methylnitrate (1 mg/kg, s.c.), used to reduce peripheral side effects of pilocarpine. After 2 h of continuous SE, rats were administered with diazepam (10 mg/kg, i.p.) to stop SE, and then immediately treated with SYN (2 mg/kg, i.p.), SYN-Pn (2 mg/kg, i.p.) in 300 μL of NaCl. Non-treated rats subjected to Pilo-SE were injected with 300 μL of NaCl (i.p.) instead of SYN or SYN-Pn. All rats received a second administration of diazepam (5 mg/kg, s.c.), 1 h after the first one, and sacrificed 9 h post-SE. The brains were collected, the hippocampus microdissected on ice, the RNA extracted and RT-qPCR performed as described above using the primer pairs shown in Table 1. The time at which rats were sacrificed was chosen based on our preliminary experiments that allowed us to determine that the peak of brain inflammation was observed 7-12 hours after the onset of SE.

[2] = test system: fully amygdala-kindled rats; assay: Seizure severity in fully amygdala-kindled rats (Racine's scale); type: in vivo, rat
Experimental: All animal procedures were in compliance with the guidelines of the European Union (directive 2010-63), regulating animal experimentation, and have been approved by the ethical committee of the Claude Bernard Lyon 1 University. Male Sprague-Dawley rats (Envigo, France) were used in these experiments. They were housed in a temperature-controlled room (23±1° C.) under diurnal lighting conditions (lights on from 6 a.m to 6 p.m). Rats arrived 15 days prior to the beginning of the experiments. They were maintained in groups of 2 in 800 cm2 plastic cages comprising minimal environmental enrichment (nesting cardboard material, wooden gnowing sticks), and had free access to food and water.
For surgical implantation of kindling electrodes, rats weighing 220-240 g were anesthetized using isoflurane (5% induction; 2% maintenance) and treated with the analgesic drug buprenorphine (0.050 mg/kg, i.m.). Their heads were positioned in a stereotaxic apparatus with the incisor bar set at −3.3 mm. Burr holes were drilled for the placement of three stainless steel jewelers' screws in the left parietal, right frontal and occipital bones, and over the site of implantation of the electrode used for amygdala kindling. This stimulation and recording electrode consisted of a teflon-isolated bipolar stainless-steel electrode aimed at the right basolateral amygdala (stereotaxic coordinates relative to Bregma: anterior-posterior, −2.8 mm; lateral, +4.8 mm; dorso-ventral, −8.5 mm). The screws placed above the parietal cortex and the frontal cortex served as recording electrodes, and the placed above the cerebellum served as grounding. Bipolar, recording and grounding electrodes were connected to a plug anchored to the skull with dental acrylic cement.
Electrical stimulation via the kindling electrode was initiated after a recovery period of 1 week after surgery, and was performed at the same time of the day (between 9:00 and 11:00 A.M. and then between 4:00 and 6:00 P.M.) to avoid intraday variance between animals. Constant current stimulations (500 μA, biphasic square-wave pulses, 50 pulses/s for 2 s) were delivered twice daily until at least 5 fully kindled seizures (secondarily generalized stage 5 seizures) were elicited. Seizure severity was classified behaviorally according to Racine's scale: stage 1, immobility, slight facial clonus (eye closure, twitching of vibrissae, sniffing); stage 2, head nodding associated with more severe facial clonus; stage 3, clonus of one forelimb; stage 4, rearing, often accompanied by bilateral forelimb clonus; stage 5, tonic-clonic seizure accompanied by loss of balance and falling.
To evaluate the effect of SYN-PN on seizure severity, SYN-PN was prepared in saline and injected intraperitoneally at 5, 10 or 50 mg/kg, 45 min prior to electrical stimulation in fully kindled rats. Briefly, the day after the last stage 5 seizure, on day 1, the rats received a first dose of SYN-PN (5 mg/kg) and were stimulated 45 minutes later. At D2 and D5, they were stimulated without SYN-PN injection to evaluate the residual effect of the 5 mg/kg dose. On D6, they received a second dose of SYN-PN (10 mg/kg) and were stimulated 45 minutes later. They were then simulated at D7 and D8 to evaluate the residual effect of the 10 mg/kg dose. On D9, rats received a third dose of SYN-PN (50 mg/kg) and were stimulated 45 minutes later. They were then simulated at D10 and D11 to evaluate the residual effect of the 50 mg/kg dose. Finally, they received 1) a daily dose of SYN-PN at 5 mg/kg from D12 to D15 and were stimulated at D16; 2) a daily dose of SYN-PN at 10 mg/kg from D19 to D22 and were stimulated at D23; and 3) a daily dose of SYN-PN at 20 mg/kg from D26 to D29 and were stimulated at D30. The treatments were then stopped. However, to assess the persistence of the effects of this series of treatments, rats continued to be stimulated at 7, 15, 42 and 56 days after the last treatment at 20 mg/kg.

CCC=CCC=CCC=CCC=CCC=CCC=CCCC(=O)NCCP(=O)(O)O [synaptamide phosphonate]
TNFα-mRNA induction in response to Pilo-SE [1]: significant effect | index integrating IL1β and TNFα: peak of the inflammatory response following Pilo-SE [1]: improved effect | induction of IL1β mRNA in response to Pilo-SE ([1]; 42-day-old rats): reduced | rats with absence of seizures 15 days after stopping treatment ([2]; all rats (n=15)): 7/15 | decrease of mean seizure severity ([2]; all rats (n=15), D1, 5 mg/kg i.p. 45 min before stimulation): 19.0±7.9% | seizure severity compared to D0 ([2]; all rats (n=15), D2, day after 5 mg/kg, no injection): −23.1±8.1% | effect of 5 mg/kg on seizure severity at D5 ([2]; all rats (n=15), D5, no injection): lost | seizure severity compared to D0 ([2]; all rats (n=15), D6, 10 mg/kg i.p. 45 minutes before stimulation): not significantly different from that at D0 | seizure severity compared to D0 ([2]; all rats (n=15), D16, after daily 5 mg/kg from D12): −42.0±9.2% | seizure severity compared to D0 ([2]; all rats (n=15), the next day and the day after 10 mg/kg (D7-D8), at the most): −39.4±11.1% | delay of the maximum effect on seizure severity after administration ([2]; any dose): 24 to 48 h | rats responding to 5 mg/kg ([2]; decrease in seizure severity first observed at 5 mg/kg i.p.): 8/15 | rats responding to 10 mg/kg ([2]; decrease in seizure severity first observed at 10 mg/kg i.p.): 3/15 | rats responding to 50 mg/kg ([2]; decrease in seizure severity first observed at 50 mg/kg i.p.): 4/15 | seizure severity compared to D0 ([2]; rats responding to 5 mg/kg (n=8), D16 after daily 5 mg/kg): −87.0±13.0% | seizure severity compared to D0 ([2]; rats responding to 5 mg/kg (n=8), same day of administration): −36.4±11.7% | average severity of seizures on increasing the daily dose from 5 to 10, then to 20 mg/kg ([2]; rats responding to 5 mg/kg, 4 daily doses each): did not change the average severity of seizures | rats remaining at stage 0 ([2]; rats responding to 5 mg/kg, D16 after daily 5 mg/kg): 7/8 | rats free from seizures ([2]; rats responding to 5 mg/kg, after 4 daily doses of 5 mg/kg): 7/8 | rats free from seizures ([2]; rats responding to 5 mg/kg, after 4 daily doses of 10 mg/kg): 4/8 | decrease of seizure severity compared to D0 ([2]; rats responding to 10 mg/kg (n=3)): not significantly different from DO | severity reduction at D16 ([2]; rats responding to 10 mg/kg (n=3), after 5 mg/kg for 4 days): maintained | decrease of seizure severity compared to D0 ([2]; rats responding to 50 mg/kg (n=4)): too variable to observe a significant effect | seizure reduction at D16 ([2]; rats responding to 50 mg/kg (n=4), after 5 mg/kg for 4 days): only transient and lost at D16 | duration of the protective effect against seizures after stopping treatment ([2]; rats responding to 50 mg/kg, after high doses (20 mg/kg)): up to 15 days | persistence of seizure freedom after stopping treatment ([2]; substantial population of rats): free of seizures, even after almost two months of stopping treatment
